{
  "source": "patent US8404286B2",
  "about": "“Use of extracts or of extract compounds from Piper cubeba L. as active components in a medicament for the treatment of cancer” (Viridis Pharmaceutical Limited, priority 2007, dated 2013)",
  "key": {"[1]": {"test_system": "prostate specific antigen (PSA)", "assay": "Secretion of the prostate specific antigen (immuno-assay, PSA/DNA)", "type": "cell-based", "conditions": "LNCap, 2 days, 10% CSS, different concentrations"}, "[2]": {"test_system": "PC-3 cells", "assay": "Inhibition of the cell proliferation, PC-3 cells", "type": "cell-based", "conditions": "PC-3, 4 days, 10% FBS culture medium, versus solvent control", "protocol": "(§1) With the liquid extract P9605 prepared according to example 1 were carried out cell proliferation tests. As control was carried along a typical substance of content of the cubeben fruits, the lignan Cubebin.\n(§2) For the measurement of the inhibition of the cell proliferation this extract was added to LNCap and to PC-3 cells. The so treated cells were cultivated during 4 days in 10% FES culture medium.\n(§3) For comparison the pure lignan Cubebin, that is contained in the extract prepared according to the invention and according to example 1 in an amount up to 20 m/m of the dry substance, was added also to LNCap and to PC-3 cells. The so treated cells were cultivated during 4 days in 10 FBS culture medium.\n(§4) Thereby it was proceeded according to T. Lindl, Zell- und Gewebekultur, 4th revised edition, 2000, Spektrum Akademischer Verlag, Heidelberg.\n(§5) All obtained datas are given in percents with regard to the solvent control (test without extract and without Cubebin); there are given the average values with Standard deviation from 4 experiments with 3-fold repetition."}, "[3]": {"target": "T1, 5α-reductase type II (Homo sapiens, UniProt P31213)", "T1 construct": "expressed in transfected cells; host or cells: HEK293 (homogenate)", "T1 sequence (P31213 1-254)": "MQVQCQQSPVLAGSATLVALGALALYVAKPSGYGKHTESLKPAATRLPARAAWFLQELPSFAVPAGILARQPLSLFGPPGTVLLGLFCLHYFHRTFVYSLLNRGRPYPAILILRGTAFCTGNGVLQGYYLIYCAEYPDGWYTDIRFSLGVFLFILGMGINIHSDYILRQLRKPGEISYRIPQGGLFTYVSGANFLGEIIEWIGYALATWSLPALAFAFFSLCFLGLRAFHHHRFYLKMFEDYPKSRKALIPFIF", "assay": "Inhibition of the 5α-reductase type II activity (HEK293 homogenate, 3H-testosterone to 3H-DHT)", "type": "biochemical", "conditions": "homogenate of HEK293 cells over expressing the enzyme", "protocol": "The inhibition of the 5α-reductase type II activity by means of the liquid extract P9605 prepared according to example 1 was determined.\nThe assay was realized with a homogenate of HEK293 cells that over express the 5α-reductase type II (Reichert W., Hartmann R. W. and Jose J.; 2001, Journal Enzyme Inhibition, Vol. 16, 47-53).\nThe influence of the extract prepared according to the present invention and of the pure substance Cubebin on the activity of the 5α-reductase type II was determined by means of the measurement of the conversion of ^3H-testosterone in ^3H-DHT.\nAs control substance was used the known 5α-reductase inhibitor “Finasterid”.\nAll obtained datas are given in percents with regard to the solvent control (test without extract); there are given the average values with Standard deviation from 4 experiments with 3-fold repetition."}, "[4]": {"test_system": "LNCap cells", "assay": "Inhibition of the cell proliferation, LNCap cells", "type": "cell-based", "conditions": "4 days, 10% FBS culture medium, versus solvent control", "protocol": "as §1, §2, §3, §4, §5"}, "[5]": {"test_system": "androgen receptor", "assay": "Amount of androgen receptor by Western-blot analysis", "type": "cell-based", "conditions": "2 days, 10% FBS", "protocol": "The influence of the generation of androgen receptors by means of the liquid extract P9605 prepared according to example 1 was determined.\nThereby in one experiment LNCap cells were cultivated during 2 days in 10% FBS culture medium to which were added different concentrations either of the extract prepared according to the present invention or of the pure substance Cubebin.\nThen was determined the change of the amount of the androgen receptor by means of the Western-blot analysis.\nIn FIG. 10 are shown the bands of the androgen receptor."}, "[6]": {"test_system": "LNCap cells", "assay": "Apoptosis immuno-assay (mono and oligonucleosomes)", "type": "cell-based", "conditions": "2 days, 10% FBS", "protocol": "The induction of apoptosis by means of the liquid extract P9605 prepared according to example 1 was determined.\nAs preliminary test was added for the measurement of the induction of apoptosis the tumor necrosis factor TNF-α alone as well as in combination with 100 nM dihydrotestosterone, abbreviated with DHT, to LNCap cells. The so treated cells were cultivated during 2 days in 10% FBS culture medium.\nThe apoptosis of the cells was measured by applying a commercial apoptosis-immuno-assay-kit in which are detected specifically the DNA and histon fragments that are present as mono and oligonucleosomes.\nAnalogous experiments were carried out with DHT alone as well as in combination with 10 μg/ml of the extract prepared according to the present invention."}, "[7]": {"test_system": "LNCap cells", "conditions": "control value at zero extract; cited from earlier work"}, "[8]": {"test_system": "LNCap cells", "conditions": "control value at zero extract; cited from earlier work", "remark": "listed apart in the source"}},
  "data": [
    {"compound": "OC1OC[C@H](Cc2ccc3c(c2)OCO3)[C@H]1Cc1ccc2c(c1)OCO2", "note": "(mixture of isomers) [Cubebin]", "values": [
      {"measurement": "inhibition of the secretion of PSA (PSA/DNA)", "setting": "[1]", "result": "inhibit the secretion of the prostate specific antigen (PSA) in dependency of the respective dose"},
      {"measurement": "anti-proliferate effect on PC-3 cells", "setting": "[2]", "result": "anti-proliferate effect on LNCap and PC-3 cells in dependency of the respective dose"},
      {"measurement": "IC50-value, 5α-reductase type II", "setting": "[3]", "result": 9.9, "unit": "µg/mL"},
      {"measurement": "inhibitive effect on the activity of the 5α-reductase type II", "setting": "[3]", "result": "inhibitive effect"},
      {"measurement": "anti-proliferate effect on LNCap cells", "setting": "[4]", "result": "anti-proliferate effect on LNCap and PC-3 cells in dependency of the respective dose"},
      {"measurement": "androgen receptor denseness in LNCap cells", "setting": "[5]", "result": "reduced increasingly in dependency of the dose"}
    ]},
    {"compound": "C[C@]12CCC(=O)C[C@@H]1CC[C@@H]1[C@@H]2CC[C@]2(C)[C@@H](O)CC[C@@H]12", "note": "[DHT, dihydrotestosterone]", "values": [
      {"measurement": "effect on the TNF-α induced apoptosis", "setting": "[6]; TNF-α in combination with 100 nM DHT", "result": "revoked completely or nearly completely"},
      {"measurement": "effect of DHT on the cell proliferation", "setting": "[7]", "result": "enhances the cell proliferation"},
      {"measurement": "effect of DHT on the DNA synthesis", "setting": "[8]", "result": "enhances the DNA synthesis"}
    ]},
    {"compound": "CC(C)(C)NC(=O)[C@H]1CC[C@H]2[C@@H]3CC[C@H]4NC(=O)C=C[C@]4(C)[C@H]3CC[C@]12C", "note": "[Finasterid]", "values": [
      {"measurement": "inhibitive effect on the activity of the 5α-reductase type II", "setting": "[3]", "result": "inhibiting effect"}
    ]},
    {"compound": "TNF-α", "values": [
      {"measurement": "induction of apoptosis", "setting": "[6]; TNF-α alone", "result": "induces the apoptosis of the tumor cells in dependency of the dose"}
    ]}
  ]
}
